The structures appear in SMILES notation.

One may read the IC50 as the concentration that gives 50% inhibition.

Chain of KRASG12-dependent Ba/F3 cells (P01116 whole entry G12C): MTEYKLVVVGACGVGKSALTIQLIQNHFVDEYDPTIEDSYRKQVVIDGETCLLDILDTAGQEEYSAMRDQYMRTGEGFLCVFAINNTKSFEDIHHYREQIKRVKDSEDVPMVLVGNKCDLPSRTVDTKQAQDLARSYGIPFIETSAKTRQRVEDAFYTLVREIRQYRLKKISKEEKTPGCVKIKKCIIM

One assay deals with T1, protein-protein interaction between SOS1 and KRAS G12C (Homo sapiens, UniProt P01116, C118S/C51S/C80L/G12C).
T1 construct: His6 (N)
T1 sequence (P01116 1-169 isoform P01116-2 G12C/C51S/C80L/C118S): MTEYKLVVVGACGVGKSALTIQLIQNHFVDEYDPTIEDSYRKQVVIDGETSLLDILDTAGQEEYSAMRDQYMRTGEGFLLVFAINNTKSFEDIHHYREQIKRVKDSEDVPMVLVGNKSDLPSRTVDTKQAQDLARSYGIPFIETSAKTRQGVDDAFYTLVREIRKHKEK
Put plainly: KRAS::SOS1 AlphaScreen binding assay. The conditions noted are these: Table 36. For orientation: Bead proximity is the source of the signal in Alpha formats.
For the molecule `C=CC(=O)N1CCN(c2cc(-c3noc([C@@]4(C)CCCc5sc(N)c(C#N)c54)n3)nc(O[C@@H](C)[C@@H]3CCCN3C)n2)CC12CC2` [Ia-57], the IC50 was 1.5 nM.

Take `C=CC(=O)N1CCN(c2cc(-c3noc(C4(C)CCc5sc(N)c(C#N)c54)n3)nc(O[C@@H](C)[C@@H]3CCCN3C)n2)CC1` (stereo partly drawn) [Ia-134]: the IC50 amounted to 3 nM.

With `C=CC(=O)N1[C@H](C)CN(c2cc(-c3noc([C@@]4(C)CCCc5sc(N)c(C#N)c54)n3)nc(O[C@@H](C)[C@@H]3CCCN3C)n2)C[C@H]1C` [Ia-56], the IC50 was determined as 105 nM.

For the molecule `C=CC(=O)N1CCN(c2cc(O[C@@H](C)[C@@H]3CCCN3C)nc(-c3noc([C@@]4(C)CCCc5sc(N)c(C#N)c54)n3)c2)CC1` [Ia-26], the IC50 was 1.9 nM.

`C=CC(=O)N1CCN(c2cc(-c3noc([C@@]4(C)CCCc5sc(N)c(C#N)c54)n3)nc(OC3CCCC34CCCN4C)n2)CC1` (stereo partly drawn) [Ia-49] showed an IC50 of 4 nM.

Molecule `C=CC(=O)N1CCN(c2cc(-c3noc([C@@]4(C)CCCc5sc(N)c(C#N)c54)n3)nc(OC[C@@H]3CC4(CC4)CN3C)n2)CC1` [Ia-72] gave a half-maximal inhibitory concentration (IC50) of 7 nM.

`C=CC(=O)N1CC[C@H](C)N(c2cc(-c3noc([C@@]4(C)CCCc5sc(N)c(C#N)c54)n3)nc(O[C@@H](C)[C@@H]3CCCN3C)n2)CC1` [Ia-55] displayed an IC50 of 2 nM.

Molecule `C=CC(=O)N1CCC(Oc2cc(O[C@@H](C)[C@@H]3CCCN3C)nc(-c3noc([C@@]4(C)CCCc5sc(N)c(C#N)c54)n3)c2)CC1` [Ia-4] yielded a concentration for half-maximal inhibition (IC50) of 1.7 nM.

As to `C=CC(=O)N1CCN(c2cc(O[C@@H](C)[C@@H]3CCCN3C)nc(-c3noc([C@@]4(C)CCCc5sc(N)c(C#N)c54)n3)n2)CC1` [Ia-136], the IC50 was 1.4 nM.

In turn, `C=CC(=O)N1CCN(c2cc(O[C@@H](C)[C@@H]3CCCN3C)nc(-c3noc([C@@]4(C)CCCc5sc(N)c(C#N)c54)n3)c2)CC12CCCC2` [Ia-84] returned an IC50 of 3 nM.

Still in this assay, the particulars now being: Table 37.
On to `COC/C=C/C(=O)N1CCN(c2cc(-c3noc([C@@]4(C)CCCc5sc(N)c(C#N)c54)n3)nc(O[C@@H](C)[C@@H]3CCCN3C)n2)CC1` [Ia-157], for which the IC50 came to 16 nM.

As for `C[C@H](Oc1nc(-c2noc([C@@]3(C)CCCc4sc(N)c(C#N)c43)n2)cc(N2CCN(C(=O)/C=C/CN3CCOCC3)CC2)n1)[C@@H]1CCCN1C` [Ia-158], the IC50 came out at 4 nM.

The molecule `C/C=C/C(=O)N1CCN(c2cc(-c3noc([C@@]4(C)CCCc5sc(N)c(C#N)c54)n3)nc(O[C@@H](C)[C@@H]3CCCN3C)n2)CC1` [Ia-155] gave an IC50 of 10 nM.

The same assay, now with this note: Table 38.
On to `CC#CC(=O)N1CCN(c2cc(-c3noc([C@@]4(C)CCCc5sc(N)c(C#N)c54)n3)nc(O[C@@H](C)[C@@H]3CCCN3C)n2)C2CCCC21` (stereo partly drawn) [Ia-167], for which the IC50 was 15 nM.

`CC#CC(=O)N1CCN(c2cc(O[C@@H](C)[C@@H]3CCCN3C)nc(-c3noc([C@@]4(C)CCCc5sc(N)c(C#N)c54)n3)n2)CC12CC2` [Ia-165] yielded an IC50 of 4 nM.

The next assay addresses KRASG12-dependent Ba/F3 cells (Homo sapiens, UniProt P01116, G12C, cells depend on it). Description: Ba/F3 cell model proliferation assay (AlamarBlue, 72 h). It is filed as cell-based. The conditions noted are these: Ba/F3 cells transduced with KRASG12C, read-out: IC50 Ba/F3 KRASG12C. Here is the method:
Ba/F3 Cell Model Generation and Proliferation Assay
Plasmids containing KRASG12 mutants were obtained from GeneScript. To generate KRASG12-dependent Ba/F3 models, Ba/F3 cells were transduced with retroviruses containing vectors that harbor KRASG12 isoforms. Platinum-E cells (Cell Biolabs) were used for retrovirus packaging. Retrovirus was added to Ba/F3 cells. To ensure infection, 4 μg/mL polybrene was added and cells were spinfected. […] Cells with an infection efficiency of 10% to 20% were further cultivated and puromycin selection with 1 μg/mL was initiated. As a control, parental Ba/F3 cells were used to show selection status. Selection was considered successful when parental Ba/F3 cells cultures died. To evaluate the transforming potential of KRASG12 mutations, the growth medium was no longer supplemented with IL-3. Ba/F3 cells harboring the empty vector were used as a control. Approximately ten days before conducting the experiments, puromycin was left out.
All treatments were performed in technical duplicates. The assay is run using a fully automated robotic system. Treated cells were incubated for 72 h at 37° C. with 5% CO2.
AlamarBlue™ (ThermoFisher), a viability stain, was added and fluorescence measured in the PerkinElmer Envision HTS Multilabel Reader.
A general note: Resazurin is reduced to fluorescent resorufin, in cell work by metabolically active cells.
As to `C=CC(=O)N1CCN(c2cc(-c3noc([C@@]4(C)CCCc5sc(N)c(C#N)c54)n3)nc(O[C@@H](C)[C@@H]3CCCN3C)n2)CC12CC2` [Ia-57], the GI50 was 5.9 nM.

In the case of `C=CC(=O)N1CCN(c2cc(-c3noc(C4(C)CCc5sc(N)c(C#N)c54)n3)nc(O[C@@H](C)[C@@H]3CCCN3C)n2)CC1` (stereo partly drawn) [Ia-134], the GI50 turned out to be 15.4 nM.

On to `COC/C=C/C(=O)N1CCN(c2cc(-c3noc([C@@]4(C)CCCc5sc(N)c(C#N)c54)n3)nc(O[C@@H](C)[C@@H]3CCCN3C)n2)CC1` [Ia-157], for which the GI50 was 1520 nM.

With `C=CC(=O)N1[C@H](C)CN(c2cc(-c3noc([C@@]4(C)CCCc5sc(N)c(C#N)c54)n3)nc(O[C@@H](C)[C@@H]3CCCN3C)n2)C[C@H]1C` [Ia-56], the GI50 worked out at 303 nM.

For the molecule `CC#CC(=O)N1CCN(c2cc(-c3noc([C@@]4(C)CCCc5sc(N)c(C#N)c54)n3)nc(O[C@@H](C)[C@@H]3CCCN3C)n2)C2CCCC21` (stereo partly drawn) [Ia-167], the GI50 came out at 189 nM.

Consider `C[C@H](Oc1nc(-c2noc([C@@]3(C)CCCc4sc(N)c(C#N)c43)n2)cc(N2CCN(C(=O)/C=C/CN3CCOCC3)CC2)n1)[C@@H]1CCCN1C` [Ia-158], for which the GI50 came out at 467 nM.

Turning to `C/C=C/C(=O)N1CCN(c2cc(-c3noc([C@@]4(C)CCCc5sc(N)c(C#N)c54)n3)nc(O[C@@H](C)[C@@H]3CCCN3C)n2)CC1` [Ia-155], the GI50 amounted to 271 nM.

In the case of `C=CC(=O)N1CCN(c2cc(O[C@@H](C)[C@@H]3CCCN3C)nc(-c3noc([C@@]4(C)CCCc5sc(N)c(C#N)c54)n3)c2)CC1` [Ia-26], the GI50 is 3.3 nM.

With `C=CC(=O)N1CCN(c2cc(-c3noc([C@@]4(C)CCCc5sc(N)c(C#N)c54)n3)nc(OC3CCCC34CCCN4C)n2)CC1` (stereo partly drawn) [Ia-49], the GI50 was found to be 26 nM.

Turning to `C=CC(=O)N1CCN(c2cc(-c3noc([C@@]4(C)CCCc5sc(N)c(C#N)c54)n3)nc(OC[C@@H]3CC4(CC4)CN3C)n2)CC1` [Ia-72], the GI50 is 77.8 nM.

Turning to `C=CC(=O)N1CC[C@H](C)N(c2cc(-c3noc([C@@]4(C)CCCc5sc(N)c(C#N)c54)n3)nc(O[C@@H](C)[C@@H]3CCCN3C)n2)CC1` [Ia-55], the GI50 turned out to be 24.2 nM.

For the molecule `C=CC(=O)N1CCC(Oc2cc(O[C@@H](C)[C@@H]3CCCN3C)nc(-c3noc([C@@]4(C)CCCc5sc(N)c(C#N)c54)n3)c2)CC1` [Ia-4], the GI50 amounted to 1 nM.

As for `C=CC(=O)N1CCN(c2cc(O[C@@H](C)[C@@H]3CCCN3C)nc(-c3noc([C@@]4(C)CCCc5sc(N)c(C#N)c54)n3)n2)CC1` [Ia-136], the GI50 was 2 nM.

Take `C=CC(=O)N1CCN(c2cc(O[C@@H](C)[C@@H]3CCCN3C)nc(-c3noc([C@@]4(C)CCCc5sc(N)c(C#N)c54)n3)c2)CC12CCCC2` [Ia-84]: the GI50 was 9.9 nM.

Consider `CC#CC(=O)N1CCN(c2cc(O[C@@H](C)[C@@H]3CCCN3C)nc(-c3noc([C@@]4(C)CCCc5sc(N)c(C#N)c54)n3)n2)CC12CC2` [Ia-165], for which the GI50 was determined as 12.5 nM.

The test system of the next assay is pERK (Thr202/Tyr204) in NCI-H358_Cas9_SOS2 (SOS2 knocked). Put plainly: ERK phosphorylation assay 2 (AlphaLISA SureFire Ultra p-ERK1/2). As to conditions: read-out: IC50 H358 pERK, ERK phosphorylation assay 2 (values marked with *).
For `C=CC(=O)N1CCN(c2cc(-c3noc([C@@]4(C)CCCc5sc(N)c(C#N)c54)n3)nc(O[C@@H](C)[C@@H]3CCCN3C)n2)CC12CC2` [Ia-57], the IC50 was found to be 0.9 nM.

With `C=CC(=O)N1CCN(c2cc(-c3noc(C4(C)CCc5sc(N)c(C#N)c54)n3)nc(O[C@@H](C)[C@@H]3CCCN3C)n2)CC1` (stereo partly drawn) [Ia-134], the IC50 was determined as 5.6 nM.

Regarding `COC/C=C/C(=O)N1CCN(c2cc(-c3noc([C@@]4(C)CCCc5sc(N)c(C#N)c54)n3)nc(O[C@@H](C)[C@@H]3CCCN3C)n2)CC1` [Ia-157], the half-inhibitory concentration (IC50) stood at 238 nM.

Turning to `C=CC(=O)N1[C@H](C)CN(c2cc(-c3noc([C@@]4(C)CCCc5sc(N)c(C#N)c54)n3)nc(O[C@@H](C)[C@@H]3CCCN3C)n2)C[C@H]1C` [Ia-56], the concentration for half-maximal inhibition (IC50) was determined as 62.1 nM.

Take `CC#CC(=O)N1CCN(c2cc(-c3noc([C@@]4(C)CCCc5sc(N)c(C#N)c54)n3)nc(O[C@@H](C)[C@@H]3CCCN3C)n2)C2CCCC21` (stereo partly drawn) [Ia-167]: the half-inhibitory concentration (IC50) was 77.2 nM.

On to `C[C@H](Oc1nc(-c2noc([C@@]3(C)CCCc4sc(N)c(C#N)c43)n2)cc(N2CCN(C(=O)/C=C/CN3CCOCC3)CC2)n1)[C@@H]1CCCN1C` [Ia-158], for which the half-maximal inhibitory concentration (IC50) stood at 103 nM.

As to `C/C=C/C(=O)N1CCN(c2cc(-c3noc([C@@]4(C)CCCc5sc(N)c(C#N)c54)n3)nc(O[C@@H](C)[C@@H]3CCCN3C)n2)CC1` [Ia-155], the half-inhibitory concentration (IC50) was 39.8 nM.

Take `C=CC(=O)N1CCN(c2cc(O[C@@H](C)[C@@H]3CCCN3C)nc(-c3noc([C@@]4(C)CCCc5sc(N)c(C#N)c54)n3)c2)CC1` [Ia-26]: the concentration for half-maximal inhibition (IC50) is 1.5 nM.

On to `C=CC(=O)N1CCN(c2cc(-c3noc([C@@]4(C)CCCc5sc(N)c(C#N)c54)n3)nc(OC3CCCC34CCCN4C)n2)CC1` (stereo partly drawn) [Ia-49], for which the half-inhibitory concentration (IC50) was 10.4 nM.

On to `C=CC(=O)N1CCN(c2cc(-c3noc([C@@]4(C)CCCc5sc(N)c(C#N)c54)n3)nc(OC[C@@H]3CC4(CC4)CN3C)n2)CC1` [Ia-72], for which the IC50 worked out at 50.9 nM.

As to `C=CC(=O)N1CC[C@H](C)N(c2cc(-c3noc([C@@]4(C)CCCc5sc(N)c(C#N)c54)n3)nc(O[C@@H](C)[C@@H]3CCCN3C)n2)CC1` [Ia-55], the half-inhibitory concentration (IC50) was 9.8 nM.

With `C=CC(=O)N1CCC(Oc2cc(O[C@@H](C)[C@@H]3CCCN3C)nc(-c3noc([C@@]4(C)CCCc5sc(N)c(C#N)c54)n3)c2)CC1` [Ia-4], the IC50 worked out at 1.1 nM.

`C=CC(=O)N1CCN(c2cc(O[C@@H](C)[C@@H]3CCCN3C)nc(-c3noc([C@@]4(C)CCCc5sc(N)c(C#N)c54)n3)n2)CC1` [Ia-136]: the half-maximal inhibitory concentration (IC50) came out at 0.9 nM.

For the molecule `C=CC(=O)N1CCN(c2cc(O[C@@H](C)[C@@H]3CCCN3C)nc(-c3noc([C@@]4(C)CCCc5sc(N)c(C#N)c54)n3)c2)CC12CCCC2` [Ia-84], the half-inhibitory concentration (IC50) stood at 11 nM.

Consider `CC#CC(=O)N1CCN(c2cc(O[C@@H](C)[C@@H]3CCCN3C)nc(-c3noc([C@@]4(C)CCCc5sc(N)c(C#N)c54)n3)n2)CC12CC2` [Ia-165], for which the half-maximal inhibitory concentration (IC50) was 4 nM.

The record behind these values is US20230212164A1, “ANNULATED 2-AMINO-3-CYANO THIOPHENES AND DERIVATIVES FOR THE TREATMENT OF CANCER” (BOEHRINGER INGELHEIM INTERNATIONAL GMBH, priority 2020, published 2023).
